Four compounds from ChEMBL document CHEMBL5543156, “Selective Elimination of Senescent Cancer Cells by Galacto-Modified PROTACs” (J Med Chem, 2024) can be followed below.

Activity calls are given as the source filed them. No cut-off for these calls is given here.

Data set [1] concerns KARPAS-299. The data set is described as follows: Senolytic index, ratio of IC50 for antiproliferative activity against human normal (non-senescent) KARPAS-299 cells assessed as reduction in cell viability to IC50 for antiproliferative activity against human senescent KARPAS-299 cells assessed as reduction in cell viability. It is filed as functional.
For data set [2], the system named is KARPAS-299. Nature of the data set: Antiproliferative activity against human senescent KARPAS-299 cells assessed as reduction in cell viability incubated for 72 hrs by CCK-8 assay. It is filed as functional, cell-based. The conditions noted are these: KARPAS-299, 72 h.
The test system of data set [3] is KARPAS-299. The data set is described as follows: Antiproliferative activity against human normal (non-senescent) KARPAS-299 cells assessed as reduction in cell viability incubated for 72 hrs by CCK-8 assay. It counts as functional, cell-based. The conditions noted are these: KARPAS-299, 72 h.
In data set [4] the target is T1, NPM/ALK (Nucleophosmin/ALK tyrosine kinase receptor) (Homo sapiens) (UniProt Q9UM73+P06748). The data set is described as follows: Induction of NPM-ALK degradation in human senescent KARPAS-299 cells at 1 uM incubated for 16 hrs by Western blot analysis. It counts as cell-based.
Data set [5] addresses T1, NPM/ALK (Nucleophosmin/ALK tyrosine kinase receptor) (Homo sapiens). Nature of the data set: Induction of NPM-ALK degradation in human normal (non-senescent) KARPAS-299 cells at 1 uM incubated for 16 hrs by Western blot analysis. It counts as cell-based.
Data set [6] relates to A549. Nature of the data set: Induction of apoptosis in human senescent A549 cells assessed as viable cells at 1 uM incubated for 24 hrs by FITC/PI staining based flow cytometry analysis (reference value: 86.9%). It is filed as functional. The conditions noted are these: read-out: Activity.
Data set [7] relates to A549. The data set is described as follows: Induction of apoptosis in human senescent A549 cells assessed as necrotic cells at 1 uM incubated for 24 hrs by FITC/PI staining based flow cytometry analysis (reference value: 0.15%). It is filed as functional.
Data set [8] addresses T2, Bromodomain-containing protein 4 (Homo sapiens, UniProt O60885). Nature of the data set: Induction of BRD4 degradation in human normal (non-senescent) A549 cells at 50 to 100 nM by SA-beta-Gal staining assay. It counts as cell-based. Conditions: dose 50-100 nM.
Data set [9] concerns A549. Nature of the data set: Senolytic index, ratio of IC50 for antiproliferative activity against human normal (non-senescent) A549 cells assessed as reduction in cell viability to IC50 for antiproliferative activity against human senescent A549 cells assessed as reduction in cell viability. It counts as functional.
The test system of data set [10] is A549. The data set is described as follows: Induction of apoptosis in human senescent A549 cells assessed as early apoptotic cells at 1 uM incubated for 24 hrs by FITC/PI staining based flow cytometry analysis (reference value: 0.68%). It counts as functional.
Data set [11] has as its system A549. Nature of the data set: Induction of apoptosis in human normal (non-senescent) A549 cells assessed as necrotic cells at 1 uM incubated for 24 hrs by FITC/PI staining based flow cytometry analysis (reference value: 0.29%). It counts as functional.
Data set [12] concerns A549. Nature of the data set: Antitumor activity against human A549 cells xenografted in SCID mouse assessed as tumor growth inhibition at 20 mg/kg, sc administered daily for 19 days. It counts as functional. The conditions noted are these: A549, 456 h, time 19 day, read-out: TGI.
The target of data set [13] is T2, Bromodomain-containing protein 4. Nature of the data set: Induction of BRD4 degradation in human A549 cells at 50 nM incubated for 16 hrs in presence of MG-132 by Western blot analysis. It counts as cell-based.
Data set [14] shares this target. Nature of the data set: Induction of BRD4 degradation in etoposide-induced human senescent A549 cells pretreated with etoposide for 3 days followed by compound administration and measured after 15 mins by SA-beta-Gal staining assay. It is filed as cell-based.
In data set [15] the test system is A549. The data set is described as follows: Induction of apoptosis in human normal (non-senescent) A549 cells assessed as early apoptotic cells at 1 uM incubated for 24 hrs by FITC/PI staining based flow cytometry analysis (reference value: 3.14%). It is filed as functional.
The subject of data set [16] is A549. Nature of the data set: Antiproliferative activity against human normal (non-senescent) A549 cells assessed as reduction in cell viability incubated for 72 hrs by CCK-8 assay. It counts as functional, cell-based. Conditions: A549, 72 h.
Data set [17] concerns A549. Nature of the data set: Antiproliferative activity against human senescent A549 cells assessed as reduction in cell viability incubated for 72 hrs by CCK-8 assay. It is filed as functional, cell-based. Conditions: A549, 72 h.
The nature of data set [18]: Toxicity in SCID mouse xenografted with human A549 cells change in body weight at 20 mg/kg, sc administered daily for 19 days. It counts as organism-based. Conditions: in vivo, 456 h, time 19 day.
Data set [19] relates to A549. The data set is described as follows: Induction of apoptosis in human normal (non-senescent) A549 cells assessed as viable cells at 1 uM incubated for 24 hrs by FITC/PI staining based flow cytometry analysis (reference value: 94.6%). It is filed as functional. The conditions noted are these: read-out: Activity.
The test system of data set [20] is A549. The data set is described as follows: Induction of apoptosis in human normal (non-senescent) A549 cells assessed as late apoptotic cells at 1 uM incubated for 24 hrs by FITC/PI staining based flow cytometry analysis (reference value: 1.97%). It is filed as functional.
The test system of data set [21] is A549. Nature of the data set: Induction of apoptosis in human senescent A549 cells assessed as late apoptotic cells at 1 uM incubated for 24 hrs by FITC/PI staining based flow cytometry analysis (reference value: 12.2%). It counts as functional.
For data set [22], the system named is A549. The data set is described as follows: Antitumor activity against human A549 cells xenografted in SCID mouse assessed as reduction in ki67 level in tumor at 20 mg/kg, sc administered daily for 19 days in presence of etoposide by IHC analysis. It is filed as functional, organism-based. The conditions noted are these: time 19.0 day.
Data set [23] has as its system A549. Nature of the data set: Antitumor activity against etoposide-induced human A549 cells xenografted in SCID mouse assessed as tumor growth inhibition at 20 mg/kg, sc administered daily for 19 days. It is filed as functional, organism-based. The conditions noted are these: time 19.0 day.
Data set [24] deals with A549. The data set is described as follows: Downregulation of BRD4 expression in etoposide-induced human senescent A549 cells at 50 nM incubated for 16 hrs by Proteomic analysis. It is filed as functional, cell-based.
Data set [25] relates to A549. Nature of the data set: Effect on ARGAL level in etoposide-induced human senescent A549 cells at 50 nM incubated for 16 hrs by Proteomic analysis. It counts as functional, cell-based.
Data set [26] deals with A549. Nature of the data set: Antitumor activity against human A549 cells xenografted in SCID mouse assessed as reduction in BRD4 level in tumor at 20 mg/kg, sc administered daily for 19 days by IHC analysis. It counts as functional, organism-based. Conditions: time 19.0 day.
The nature of data set [27]: Stability of the compound assessed as porcine liver esterase-mediated hydrolysis measured at 16 hrs by Real-time ultrafast liquid chromatography analysis. It is filed as ADME, Sus scrofa. Conditions: pig, isolated protein.
For data set [28], the system named is A549. Nature of the data set: Antitumor activity against human A549 cells xenografted in SCID mouse assessed as decrease in p21 level in tumor at 20 mg/kg, sc administered daily for 19 days in presence of etoposide by IHC analysis. Conditions: time 19.0 day. It is filed as functional, organism-based.
Data set [29] has as its target T2, Bromodomain-containing protein 4. Nature of the data set: Induction of BRD4 degradation in etoposide-induced human senescent A549 cells incubated for 16 hrs by Western blot analysis. It counts as cell-based.
For data set [30] the target is unchanged. The data set is described as follows: Induction of BRD4 degradation in human U87 cells by SA-beta-Gal staining assay. It is filed as cell-based.
In data set [31] the test system is A549. Nature of the data set: Effect on BTBD8 level in etoposide-induced human senescent A549 cells at 50 nM incubated for 16 hrs by Proteomic analysis. It is filed as functional, cell-based.
Data set [32] deals with T2, Bromodomain-containing protein 4. Nature of the data set: Induction of BRD4 degradation in etoposide-induced human senescent HeLa cells by SA-beta-Gal staining assay. It is filed as cell-based.
Data set [33] has the same target. The data set is described as follows: Induction of BRD4 degradation in etoposide-induced human senescent A549 cells at 100 nM pretreated with etoposide for 3 days followed by compound administration and measured after 15 mins by SA-beta-Gal staining assay. It is filed as cell-based.
Data set [34] can be described thus: Stability of the compound in fetal bovine serum incubated for 24 hrs by Real-tie ultrafast liquid chromatography analysis. The conditions noted are these: cattle. It counts as ADME, cell-free, Bos taurus.
The subject of data set [35] is A549. Nature of the data set: Antitumor activity against human A549 cells xenografted in SCID mouse assessed as increase in cleaved caspase-3 level in tumor at 20 mg/kg, sc administered daily for 19 days in presence of etoposide by IHC analysis. Conditions: time 19.0 day. It is filed as functional, organism-based.
Data set [36] has as its target T2, Bromodomain-containing protein 4. Nature of the data set: Induction of BRD4 degradation in etoposide-induced human senescent U87 cells by SA-beta-Gal staining assay. It counts as cell-based.
Data set [37] shares this target. The data set is described as follows: Induction of BRD4 degradation in human HeLa cells by SA-beta-Gal staining assay. It counts as cell-based.

T1 sequence (P06748 whole entry partner): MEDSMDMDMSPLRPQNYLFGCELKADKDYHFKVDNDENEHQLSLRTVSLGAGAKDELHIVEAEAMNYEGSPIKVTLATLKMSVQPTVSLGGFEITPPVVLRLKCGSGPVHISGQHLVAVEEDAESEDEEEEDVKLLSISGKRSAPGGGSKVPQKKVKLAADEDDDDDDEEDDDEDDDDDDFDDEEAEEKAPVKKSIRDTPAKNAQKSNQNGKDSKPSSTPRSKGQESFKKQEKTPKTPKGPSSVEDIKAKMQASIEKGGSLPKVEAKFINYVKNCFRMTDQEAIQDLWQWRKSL
T1 sequence (Q9UM73 19-1620 limits assumed): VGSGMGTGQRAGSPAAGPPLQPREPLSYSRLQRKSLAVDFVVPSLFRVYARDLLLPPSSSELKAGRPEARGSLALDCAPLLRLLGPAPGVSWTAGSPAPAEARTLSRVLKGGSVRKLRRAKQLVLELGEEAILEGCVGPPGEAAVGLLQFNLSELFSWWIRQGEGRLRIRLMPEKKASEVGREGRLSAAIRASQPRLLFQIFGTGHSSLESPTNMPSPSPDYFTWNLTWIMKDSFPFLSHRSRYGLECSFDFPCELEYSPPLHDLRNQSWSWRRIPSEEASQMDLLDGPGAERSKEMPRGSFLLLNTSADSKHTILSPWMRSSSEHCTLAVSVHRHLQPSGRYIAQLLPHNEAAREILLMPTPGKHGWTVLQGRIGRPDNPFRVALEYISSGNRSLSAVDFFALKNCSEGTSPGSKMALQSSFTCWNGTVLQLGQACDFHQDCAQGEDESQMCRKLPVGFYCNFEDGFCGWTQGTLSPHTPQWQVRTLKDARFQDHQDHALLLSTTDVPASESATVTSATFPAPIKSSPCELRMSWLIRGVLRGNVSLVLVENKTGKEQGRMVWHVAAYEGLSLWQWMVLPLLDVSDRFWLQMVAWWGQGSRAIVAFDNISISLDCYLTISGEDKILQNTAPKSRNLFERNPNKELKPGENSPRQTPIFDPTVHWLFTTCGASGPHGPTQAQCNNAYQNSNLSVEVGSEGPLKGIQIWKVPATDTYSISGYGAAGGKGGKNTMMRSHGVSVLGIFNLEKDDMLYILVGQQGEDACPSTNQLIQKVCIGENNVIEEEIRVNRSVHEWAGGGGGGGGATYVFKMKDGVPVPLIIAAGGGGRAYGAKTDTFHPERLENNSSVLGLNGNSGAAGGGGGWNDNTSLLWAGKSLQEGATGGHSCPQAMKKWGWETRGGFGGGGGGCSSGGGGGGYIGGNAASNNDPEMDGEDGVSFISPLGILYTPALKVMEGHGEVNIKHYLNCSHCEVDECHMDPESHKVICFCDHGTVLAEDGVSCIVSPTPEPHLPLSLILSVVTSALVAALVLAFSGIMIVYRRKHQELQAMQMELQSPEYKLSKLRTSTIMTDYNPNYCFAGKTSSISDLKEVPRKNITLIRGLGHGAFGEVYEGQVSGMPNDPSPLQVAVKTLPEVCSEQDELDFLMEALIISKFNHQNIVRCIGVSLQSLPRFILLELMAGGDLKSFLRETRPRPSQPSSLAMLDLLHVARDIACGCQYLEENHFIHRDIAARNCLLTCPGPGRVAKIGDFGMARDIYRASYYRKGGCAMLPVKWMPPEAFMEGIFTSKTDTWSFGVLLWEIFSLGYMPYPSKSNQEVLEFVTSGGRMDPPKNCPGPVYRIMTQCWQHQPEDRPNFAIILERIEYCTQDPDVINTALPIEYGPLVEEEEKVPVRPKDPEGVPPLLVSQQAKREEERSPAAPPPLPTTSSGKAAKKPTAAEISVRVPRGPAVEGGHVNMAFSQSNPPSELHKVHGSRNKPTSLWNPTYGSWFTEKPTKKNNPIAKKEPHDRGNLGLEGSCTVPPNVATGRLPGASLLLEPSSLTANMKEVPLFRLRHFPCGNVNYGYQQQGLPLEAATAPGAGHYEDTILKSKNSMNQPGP

Take `CC(=O)OC[C@H]1O[C@@H](Oc2ccc(COC(=O)O[C@@H]3C[C@@H](C(=O)N[C@@H](C)c4ccc(-c5scnc5C)cc4)N(C(=O)[C@@H](NC(=O)CCCC(=O)N4CCC(c5cc(OC(C)C)c(Nc6ncc(Cl)c(Nc7ccccc7S(=O)(=O)C(C)C)n6)cc5C)CC4)C(C)(C)C)C3)cc2)[C@H](OC(C)=O)[C@@H](OC(C)=O)[C@H]1OC(C)=O`: the “Ratio IC50” value in the data set on KARPAS-299 [1] was determined as 4.75. For the same compound, the IC50 with KARPAS-299 [2] is 455 nM; with KARPAS-299 [3], 2160 nM. Moreover, the outcome in [4] was Active. Moreover, the outcome in data set [5] was inactive.
On to `Cc1ncsc1-c1ccc([C@H](C)NC(=O)[C@@H]2C[C@@H](O)CN2C(=O)[C@@H](NC(=O)COCCCOCCNC(=O)C[C@@H]2N=C(c3ccc(Cl)cc3)c3c(sc(C)c3C)-n3c(C)nnc32)C(C)(C)C)cc1`, for which the viability at 1 µM turned out to be 68.7% in the data set on A549 [6] and 72.2% in the data set with A549 [19]. Moreover, the Activity is recorded as 0.09% in the data set with A549 [7]; 17% with A549 [10]; 0.98% in the data set on A549 [11]; 20.1% with A549 [15]; “Non-Toxic” in data set [18]; 6.76% in the data set with A549 [20]. In the data set on A549 [21], the Activity stood at 14.2%. The outcome in data set [8], in data set [13] and in data set [14] was Active. Also, the “Ratio IC50” value with A549 [9] is 0.59. The inhibition in vivo at 20 mg/kg in the data set on A549 [12] stood at 74%. Moreover, the values for the half-maximal inhibitory concentration (IC50) in the data set on A549 [16] and with A549 [17] were 640 nM and 603 nM, respectively.
On to `Cc1cc(Nc2ncc(Cl)c(Nc3ccccc3S(=O)(=O)C(C)C)n2)c(OC(C)C)cc1C1CCN(C(=O)CCCC(=O)N[C@H](C(=O)N2C[C@H](O)C[C@H]2C(=O)N[C@@H](C)c2ccc(-c3scnc3C)cc2)C(C)(C)C)CC1`, for which the “Ratio IC50” value in the data set with KARPAS-299 [1] is 1.59. In addition, the IC50 in the data set on KARPAS-299 [2] was found to be 232 nM; in the data set with KARPAS-299 [3] it was 369 nM. Also, the outcome in [4] was Active.
For `CC(=O)OC[C@H]1O[C@@H](Oc2ccc(COC(=O)O[C@@H]3C[C@@H](C(=O)N[C@@H](C)c4ccc(-c5scnc5C)cc4)N(C(=O)[C@@H](NC(=O)COCCCOCCNC(=O)C[C@@H]4N=C(c5ccc(Cl)cc5)c5c(sc(C)c5C)-n5c(C)nnc54)C(C)(C)C)C3)cc2)[C@H](OC(C)=O)[C@@H](OC(C)=O)[C@H]1OC(C)=O`, the outcome (with A549 [22]; in data set [13]; with A549 [24]; in data set [14]; with A549 [25]; in the data set with A549 [26]) was Active. For the same compound, the outcome (in the data set on A549 [28]; in data set [30]; in the data set on A549 [31]; in [32]; in [33]; in the data set with A549 [35]) was Active. In addition, the outcome in data set [36] and in [37] was Active. Also, the viability at 1 µM with A549 [6] is 68.3%; in the data set with A549 [19] it was 86.5%. The Activity with A549 [7] is recorded as 0.1%; in the data set with A549 [10], 16.7%; with A549 [11], 0.68%; with A549 [15], 8.07%; in data set [18], “Non-Toxic”; with A549 [20] it was 4.72%. For the same compound, the Activity in the data set with A549 [21] is given as 14.8%. In the data set with A549 [9], the “Ratio IC50” value came out at 5.17. Besides, the inhibition in vivo at 20 mg/kg in the data set on A549 [12] stood at 80%. The TGI entry with A549 [23] is “Active”. Further, the IC50 in the data set on A549 [16] was determined as 3290 nM; in the data set on A549 [17], 354 nM. Besides, the Stability entry in data set [27] and in [34] was “Stable” each time. Further, it took 18.3 nM to reach half-maximal degradation in data set [29] (DC50).
